Values quoted from earlier work, collected in patent publication US12582603B2 (NTC S.r.l., priority 2017, dated 2026).

Settings: at a pH of 6.4

Brc1c(N=C2NCCN2)ccc2nccnc12.O=C(O)C(O)C(O)C(=O)O [Brimonidine, 5-Bromo-6-(2-imidazolidinylideneamino)quinoxaline L-tartrate]
Fraction ionized: about 90%
